This passage reports EC50 results from BindingDB's records for doi:10.1016/s0960-894x(03)00407-4 (Guilford Pharmaceuticals, 2003).

A short description of the test: Concentration required for the neuroprotective effect determined by inhibition of GCP II.
On to `O=C(O)CCC(CCCC(=O)NO)C(=O)O` (stereo not drawn) [2-(3-Hydroxycarbamoyl-propyl)-pentanedioic acid], for which the response was half-maximal at 1100 nM (EC50). This counts as single-digit micromolar.

As to `O=C(O)CCC(CC(=O)NO)C(=O)O` (stereo not drawn) [2-[(hydroxycarbamoyl)methyl]pentanedioic acid], the EC50 amounted to 220 nM.

In turn, `O=C(O)CCC(CP(=O)(O)Cc1c(F)c(F)c(F)c(F)c1F)C(=O)O` (racemic) gave an EC50 of 9.5 nM.

The EC50 is the concentration at which the effect is half-maximal.
